# Values quoted from earlier work in patent publication US5837685A (priority 1996, dated 1998).
# Tests used:
# [1] = tested on: Candida
# [2] = tested on: patients; details: some impairment of renal function regardless of dosage
compound,measurement,setting,value
C[C@@H]1[C@H](O)[C@@H](C)/C=C/C=C/C=C/C=C/C=C/C=C/C=C/[C@H](O[C@@H]2O[C@H](C)[C@@H](O)[C@H](N)[C@@H]2O)C[C@@H]2O[C@](O)(C[C@@H](O)C[C@@H](O)[C@H](O)CC[C@@H](O)C[C@@H](O)CC(=O)O[C@H]1C)C[C@H](O)[C@H]2C(=O)O [Amphotericin B],active in vitro at concentrations of,[1],0.01 to 2 µg/mL
same,toxicity,[2],highly toxic
